Reference: publication PMC6465078 (Molecular pharmaceutics, 2018)
Structures can show the parent of a compound that is named as a salt.

Tests used:
[1] = target: T1, OSTα/β (Homo sapiens, UniProt Q86UW1); test: Inhibition of OSTα/β-mediated DHEAS uptake in OSTα/β-overexpressing Flp-In 293; format: cell-based; conditions: for Maximal inhibition of OSTα/β-mediated DHEAS uptake: Method 1, up to 200 µM inhibitor; for Inhibition of OSTα/β-mediated DHEAS uptake (screening): Method 1 (10 min preincubation), test compound 100 µM; for Inhibition of OSTα/β-mediated DHEAS uptake: inhibitor 100 µM, DHEAS 20 µM
T1 sequence (Q86UW1 1-340): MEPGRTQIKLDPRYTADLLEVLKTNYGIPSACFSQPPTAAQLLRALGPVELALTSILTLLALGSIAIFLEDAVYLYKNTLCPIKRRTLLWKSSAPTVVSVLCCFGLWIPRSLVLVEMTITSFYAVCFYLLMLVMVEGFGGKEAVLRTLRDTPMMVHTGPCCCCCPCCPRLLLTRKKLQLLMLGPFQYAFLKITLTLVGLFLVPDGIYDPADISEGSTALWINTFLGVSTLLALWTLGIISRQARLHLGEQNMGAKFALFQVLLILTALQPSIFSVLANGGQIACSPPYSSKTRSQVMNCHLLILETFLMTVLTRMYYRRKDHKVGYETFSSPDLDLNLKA
T1 sequence (Q86UW2 1-128 partner): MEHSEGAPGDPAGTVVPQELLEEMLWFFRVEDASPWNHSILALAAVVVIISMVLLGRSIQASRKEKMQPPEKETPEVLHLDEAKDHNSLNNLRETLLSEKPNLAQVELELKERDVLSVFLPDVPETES

[2] = cited from earlier work
[3] = target: T1, OSTα/β; test: Inhibition of OSTα/β-mediated taurocholate; format: cell-based; conditions: for inhibition at 100 µM: read-out: Inhibition of OSTα/β-mediated TCA uptake; for Inhibition of OSTα/β-mediated TCA uptake (statistical significance): Methods 1-3, method not specified
[4] = test system: OSTα/β; conditions: single concentration of 100–1000 μM; cited from earlier work
[5] = test system: ABCB11; conditions: cited from earlier work
[6] = test system: ABCC3; conditions: cited from earlier work
[7] = target: T1, OSTα/β; test: Inhibition of OSTα/β-mediated digoxin uptake in OSTab cells; format: cell-based; conditions: read-out: Inhibition of OSTα/β-mediated digoxin uptake
[8] = target: T1, OSTα/β; conditions: cell line ectopically expressing human OSTα/β; cited from earlier work
[9] = test system: OSTα/β; conditions: cited from earlier work
[10] = Concentration in hepatocyte cultures; format: in vitro ADME; conditions: equivalent of ~700 ng/mg protein
[11] = cited from earlier work; remark: listed apart in the source
[12] = test system: ABCC4; conditions: cited from earlier work
[13] = Flp-In-293, read-out: Inhibition of OSTα/β-mediated DHEAS uptake (screening)
[14] = Flp-In-293, read-out: Inhibition of OSTα/β-mediated DHEAS uptake
[15] = Method 2 (co-incubation only), 30 s uptake

In the case of `C#C[C@]1(OC(C)=O)CC[C@H]2[C@@H]3CCC4=CC(=NO)CC[C@@H]4[C@H]3CC[C@@]21CC` (mixture of isomers) [norgestimate], the inhibition at 100 µM [1, 13] is listed as 35 to 64%, the “Maximal inhibition of OSTα/β-mediated DHEAS uptake” value ([1]; DHEAS 4 µM) is listed as “less than 50%” and the “Associated cases of DILI” value [2] is listed as “more than 100 cases”.

For `CCCN(CCC)S(=O)(=O)c1ccc(C(=O)O)cc1` [probenecid], the inhibition at 100 µM [1, 13] was 5 to 23%.

With `CC(C)c1nc(N(C)S(C)(=O)=O)nc(-c2ccc(F)cc2)c1/C=C/[C@@H](O)C[C@@H](O)CC(=O)O` [rosuvastatin] the “Inhibition of OSTα/β-mediated DHEAS uptake (screening)” value (“Inhibition … (screening)” below) ([1]; DHEAS 4 µM, 30 s uptake) was “did not inhibit OSTα/β”.

In the case of `C[C@H](CCC(=O)NCC(=O)O)[C@H]1CC[C@H]2[C@@H]3[C@H](O)C[C@@H]4C[C@H](O)CC[C@]4(C)[C@H]3CC[C@]12C` [glycochenodeoxycholate], the “Maximal inhibition of OSTα/β-mediated DHEAS uptake” value ([1]; DHEAS 4 µM) is reported as “less than 50%”.

`CC[C@H](C)C(=O)O[C@H]1C[C@@H](C)C=C2C=C[C@H](C)[C@H](CC[C@@H]3C[C@@H](O)CC(=O)O3)[C@H]21` [lovastatin] gave an inhibition at 100 µM [1, 13] of roughly 21%.

For `Cc1c(C)c2c(c(C)c1O)CCC(C)(COc1ccc(CC3SC(=O)NC3=O)cc1)O2` (centres unmarked) [troglitazone], the “Inhibition … (screening)” value ([1]; DHEAS 4 µM, 30 s uptake) was “novel OSTα/β inhibitors” and the “IC50 for inhibition of OSTα/β-mediated DHEAS uptake” value ([1]; Method 1, 0.125–200 µM inhibitor, DHEAS 4 µM, 30 s uptake) was “did not yield a consistent inhibition curve”.

Compound `C[C@H]1c2cccc(O)c2C(=O)C2=C(O)[C@]3(O)C(=O)C(C(N)=O)=C(O)[C@@H](N(C)C)[C@@H]3[C@@H](O)[C@@H]21` [doxycycline] has an inhibition at 100 µM [1, 13] of roughly 19%.

For `CC1(C)S[C@@H]2[C@H](NC(=O)[C@H](N)c3ccc(O)cc3)C(=O)N2[C@H]1C(=O)O` [amoxicillin], the “Inhibition … (screening)” value ([1]; DHEAS 4 µM, 30 s uptake) is listed as “decreased” and the “Associated cases of DILI” value [2] is listed as “more than 100 cases”.

With `CC(=O)S[C@@H]1CC2=CC(=O)CC[C@]2(C)[C@H]2CC[C@@]3(C)[C@@H](CC[C@@]34CCC(=O)O4)[C@H]12` [spironolactone] the inhibition at 100 µM [1, 14] was roughly 20%, the “Inhibition of OSTα/β-mediated DHEAS uptake” value [1, 15] was “no inhibition” and the inhibition at 100 µM [3] was roughly 20%. The “Inhibition of OSTα/β-mediated TCA and ES uptake” value [4] was “inhibited”.

In the case of `C[C@H](CCC(=O)NCCS(=O)(=O)O)[C@H]1CC[C@H]2[C@@H]3CC[C@@H]4C[C@H](OS(=O)(=O)O)CC[C@]4(C)[C@H]3CC[C@]12C` [TLCAS, taurolithocholic acid sulfate], the “Stimulation of OSTα/β-mediated TCA uptake” value ([3]; Method 2 (co-incubation only), 100 µM, TCA 20 µM) is given as ~ 25%, the “Inhibition of OSTα/β-mediated TCA uptake (statistical significance)” value ([3]; inhibitor 100 µM, TCA 20 µM) is given as “did not reach statistical significance” and the “Inhibition of OSTα/β-mediated TCA and ES uptake” value [4] is given as “inhibited”.

For `C#C[C@]1(O)CC[C@H]2[C@@H]3CCc4cc(O)ccc4[C@H]3CC[C@@]21C` [ethinylestradiol], the “Associated cases of DILI” value [2] is listed as “more than 100 cases”, the “Interaction with ABCB11” value ([5]; ref Supporting Table 1) is listed as “interact” and the “Interaction with ABCC3” value ([6]; ref Supporting Table 1) is listed as “interact”.

With `CCc1c(Cl)c(O)c(Cl)c(O)c1C(=O)O[C@H]1[C@H](O)[C@H](OC)[C@H](OC/C2=C\C=C\C[C@H](O)/C(C)=C/[C@H](CC)[C@@H](O[C@@H]3OC(C)(C)[C@@H](OC(=O)C(C)C)[C@H](O)[C@@H]3O)/C(C)=C/C(C)=C/C[C@@H]([C@@H](C)O)OC2=O)O[C@@H]1C` [fidaxomicin] the inhibition at 100 µM [1, 13] was 71%, the “Inhibition of OSTα/β-mediated DHEAS uptake” value ([1]; Method 1 (10 min preincubation only), 30 s uptake) was “inhibited DHEAS uptake” and the “Inhibition of OSTα/β-mediated TCA uptake” value ([3]; Method 2 (co-incubation only), inhibitor 100 µM, TCA 20 µM, 30 s uptake) was greater than 70%. For the same compound, the inhibition at 100 µM [3] was greater than 70%, the inhibition at 100 µM [7] was 90% and the “Inhibition of OSTα/β-mediated TCA transport” value [8] was “inhibited”. For the same compound, the “Inhibition of ABCC3” value [6] was “inhibit”.

For `O=C1[C@H](CC[C@H](O)c2ccc(F)cc2)[C@@H](c2ccc(O)cc2)N1c1ccc(F)cc1` [ezetimibe], the “Inhibition … (screening)” value ([1]; DHEAS 4 µM, 30 s uptake) was “could not be reproduced”.

In the case of `CC(C)/N=c1\cc2n(-c3ccc(Cl)cc3)c3ccccc3nc-2cc1Nc1ccc(Cl)cc1` [clofazimine], the “OSTα/β inhibitor identification in screen of 1,280 FDA-approved drugs” value [9] is given as “OSTα/β inhibitor”.

For `Cc1c(C)c2c(c(C)c1OS(=O)(=O)O)CCC(C)(COc1ccc(CC3SC(=O)NC3=O)cc1)O2` (centres unmarked) [troglitazone sulfate], the “Concentration in hepatocyte cultures, molar equivalent” value [10] is listed as ~ 190 µM, the “Inhibition of OSTα/β-mediated TCA transport” value [8] is listed as “inhibited” and the “Concentration in hepatocyte cultures” value [11] is listed as ~ 700 ng/mg protein. The “Inhibition of ABCB11” value [5] was “inhibits” and the “Inhibition of ABCC4” value [12] was “inhibits”.

With `COc1ccc2c(c1)c(CC(=O)O)c(C)n2C(=O)c1ccc(Cl)cc1` [indomethacin] the inhibition at 100 µM [1, 14] was roughly 20%, the inhibition at 100 µM [1, 13] was 5 to 23% and the “Inhibition of OSTα/β-mediated DHEAS uptake” value [1, 15] was “no inhibition”. For the same compound, the “Inhibition of OSTα/β-mediated TCA uptake (statistical significance)” value ([3]; inhibitor 100 µM, TCA 20 µM) was “did not reach statistical significance”.

`C[C@H]1O[C@@H](O[C@H]2[C@@H](O)C[C@H](O[C@H]3[C@@H](O)C[C@H](O[C@H]4CC[C@@]5(C)[C@H](CC[C@@H]6[C@@H]5C[C@@H](O)[C@]5(C)[C@@H](C7=CC(=O)OC7)CC[C@]65O)C4)O[C@@H]3C)O[C@@H]2C)C[C@H](O)[C@@H]1O` [digoxin] showed an inhibition at 100 µM [1, 13] of 5 to 23%.

For `O=C(O)[C@H]1/C(=C/CO)O[C@@H]2CC(=O)N21` [clavulanic acid], the “Inhibition … (screening)” value ([1]; DHEAS 4 µM, 30 s uptake) is given as “decreased” and the “Associated cases of DILI” value [2] is given as “more than 100 cases”.

Work on `O=C1OC(c2ccc(O)c(S(=O)(=O)O)c2)(c2ccc(O)c(S(=O)(=O)O)c2)c2c(Br)c(Br)c(Br)c(Br)c21` [sulfobromophthalein] yielded an inhibition at 100 µM [1, 13] of 5 to 23%.
